# Data as given in US20260215428A1, “WEED CONTROL METHOD” (SYNGENTA CROP PROTECTION AG, priority 2023, published 2026).
# Tests used:
# Assay type in all cases: in vivo
# Eleusine indica [1] = assay: Glasshouse post-emergence test, visual damage, Tables B1-2 and B1-3; settings: 14 days after application
# Method: Seeds of a variety of test species are sown in standard soil in pots. For each treatment, three replicate pots containing 10-15 plants per one-inch pot were sprayed at the 2-3 leaf stage. […] The test plants are then grown in a glasshouse under controlled conditions in a glasshouse (at 24/16° C., day/night; 14 hours light; 65% humidity) and watered twice daily. Plants were assessed for visual damage compared to the untreated control 14 days after application (0=0% damage; 100=100% damage).
# Setaria viridis = assay: Glasshouse post-emergence test, visual damage, Table B1-5; settings: 14 days after application
# Method: Seeds of a variety of test species are sown in standard soil in pots. For each treatment, three replicate pots containing 10-15 plants per one-inch pot were sprayed at the 2-3 leaf stage. Clethodim and Compound (Ic) were each applied at 15, 30, 60 and 120 g ai/ha. The test plants are then grown in a glasshouse under controlled conditions in a glasshouse (at 24/16° C., day/night; 14 hours light; 65% humidity) and watered twice daily. Plants were assessed for visual damage compared to the untreated control 14 days after application (0=0% damage; 100=100% damage).
# Eleusine indica [2] = assay: Further glasshouse test versus other ACCase-inhibiting herbicides, Table B2-2; settings: 21 days after application
# Excerpt: (§1) Further tests were employed to test the efficacy of a compound of Formula I versus other ACCase-inhibiting herbicides. The five main targets were Lolium multiflorum, Eleusine indica, Digitaria insularis, Sorghum halepense and Echinochloa crus-galli. Collectively, the populations contained all the major target-site resistance mutations affecting ACCase herbicides. Two L. multiflorum (LM-NTSR-1 and LM-NTSR-2) and one E. crus-galli (ECG-NTSR-1) populations were characterised exclusively by non-target-site resistance (“NTSR”). The target-site resistant L. multiflorum and E. indication populations were 100% homozygous for different ACCase mutations whilst the D. insularis, S. halepense and E. crus-galli samples contained a mixture of homozygous wild and mutant individuals at different genotypic frequencies. Additional underlying NTSR cannot be ruled out in the populations characterised by target-site resistance.
# (§2) Around 50 seeds of each of the 24 weed populations were sown in 12-cm pots containing a mixture of peat and compost in a 1:1 ratio. The pots were watered, fertilised and kept in controlled glasshouse conditions set at 24° C./16 hr day, 18° C. night, 65% relative humidity, and a photon flux density of approximately 250 μmol quanta m^−2 s^−1 for Lolium multiflorum. The E. indica, D. insularis, S. halepense and E. crus-galli plants were kept in a separate glasshouse bay characterised by a 17 H photoperiod of 180 μmol m^−2 s^−1 with temperatures of 25° C. day and 19° C. night and 65% relative humidity. When the plants were at the two to four-leaf stage, they were treated with the various ACCase-inhibiting herbicides at 0, 15, 30, 60, 120 and 240 g ai ha^−1 in a spray cabinet mounted with a single mobile Teejet flat fan nozzle (11002VS) calibrated to deliver 200 L ha^−1 at 200 kPa. The L. multiflorum populations were treated by a compound of Formula Ic, clodinafop-propargyl, pinoxaden, cycloxydim and clethodim and the warm season grass weeds E. indica, D. insularis, S. halepense and E. crus-galli were sprayed with a Compound Ic and the commonly employed haloxyfop-methyl and clethodim. Three replicate pots were used per population. Plants were assessed for visual damage compared to the untreated control 21 days after application (0=0% damage; 100=100% damage).
# Echinochloa Crus-galli = assay: Further glasshouse test versus other ACCase-inhibiting herbicides, Table B2-5; settings: 21 days after application
# Excerpt: as §1, §2
smiles,measurement,setting,value
"CCSC(C)CC1CC(=O)C(/C(CC)=N/OC/C=C/Cl)=C(O)C1 (centres unmarked) [Clethodim, clethodim]",visual damage,"Eleusine indica [1]; Table B1-2, biotype 87% I1781L (heterozygous), 15 g/ha",80%
same,visual damage,"Eleusine indica [1]; Table B1-2, biotype 87% I1781L (heterozygous), 30 g/ha",77%
same,visual damage,"Eleusine indica [1]; Table B1-2, biotype 87% I1781L (heterozygous), 60 g/ha",100%
same,visual damage,"Eleusine indica [1]; Table B1-2, biotype 87% I1781L (heterozygous), 120 g/ha",100%
same,visual damage,"Eleusine indica [1]; Table B1-2, biotype D2078G + W2027C (heterozygous), first entry, 15 g/ha",50%
same,visual damage,"Eleusine indica [1]; Table B1-2, biotype D2078G + W2027C (heterozygous), first entry, 30 g/ha",60%
same,visual damage,"Eleusine indica [1]; Table B1-2, biotype D2078G + W2027C (heterozygous), first entry, 60 g/ha",70%
same,visual damage,"Eleusine indica [1]; Table B1-2, biotype D2078G + W2027C (heterozygous), first entry, 120 g/ha",80%
same,visual damage,"Eleusine indica [1]; Table B1-2, biotype D2078G + W2027C (heterozygous), second entry, 15 g/ha",63%
same,visual damage,"Eleusine indica [1]; Table B1-2, biotype D2078G + W2027C (heterozygous), second entry, 30 g/ha",67%
same,visual damage,"Eleusine indica [1]; Table B1-2, biotype D2078G + W2027C (heterozygous), second entry, 60 g/ha",93%
same,visual damage,"Eleusine indica [1]; Table B1-2, biotype D2078G + W2027C (heterozygous), second entry, 120 g/ha",100%
same,visual damage,"Eleusine indica [1]; Table B1-2, biotype I2041N (heterozygous), 15 g/ha",82%
same,visual damage,"Eleusine indica [1]; Table B1-2, biotype I2041N (heterozygous), 30 g/ha",100%
same,visual damage,"Eleusine indica [1]; Table B1-2, biotype I2041N (heterozygous), 60 g/ha",100%
same,visual damage,"Eleusine indica [1]; Table B1-2, biotype I2041N (heterozygous), 120 g/ha",100%
same,visual damage,"Eleusine indica [1]; Table B1-2, biotype NTSR (non-target site resistance), 1 g/ha",0%
same,visual damage,"Eleusine indica [1]; Table B1-2, biotype NTSR (non-target site resistance), 2 g/ha",33%
same,visual damage,"Eleusine indica [1]; Table B1-2, biotype NTSR (non-target site resistance), 4 g/ha",43%
same,visual damage,"Eleusine indica [1]; Table B1-2, biotype NTSR (non-target site resistance), 8 g/ha",77%
same,visual damage,"Eleusine indica [1]; Table B1-2, biotype Sensitive, 15 g/ha",87%
same,visual damage,"Eleusine indica [1]; Table B1-2, biotype Sensitive, 30 g/ha",100%
same,visual damage,"Eleusine indica [1]; Table B1-2, biotype Sensitive, 60 g/ha",100%
same,visual damage,"Eleusine indica [1]; Table B1-2, biotype Sensitive, 120 g/ha",100%
same,visual damage,"Eleusine indica [1]; Table B1-3, Pop1 (mix of sensitive, D2078G and G2096A biotypes), 15 g/ha",10%
same,visual damage,"Eleusine indica [1]; Table B1-3, Pop1 (mix of sensitive, D2078G and G2096A biotypes), 30 g/ha",33%
same,visual damage,"Eleusine indica [1]; Table B1-3, Pop1 (mix of sensitive, D2078G and G2096A biotypes), 60 g/ha",47%
same,visual damage,"Eleusine indica [1]; Table B1-3, Pop1 (mix of sensitive, D2078G and G2096A biotypes), 120 g/ha",63%
same,visual damage,"Eleusine indica [1]; Table B1-3, Pop2 (mix of sensitive, D2078G and G2096A biotypes), 15 g/ha",10%
same,visual damage,"Eleusine indica [1]; Table B1-3, Pop2 (mix of sensitive, D2078G and G2096A biotypes), 30 g/ha",33%
same,visual damage,"Eleusine indica [1]; Table B1-3, Pop2 (mix of sensitive, D2078G and G2096A biotypes), 60 g/ha",76%
same,visual damage,"Eleusine indica [1]; Table B1-3, Pop2 (mix of sensitive, D2078G and G2096A biotypes), 120 g/ha",77%
same,visual damage,"Eleusine indica [1]; Table B1-3, biotype Sensitive, 15 g/ha",100%
same,visual damage,"Eleusine indica [1]; Table B1-3, biotype Sensitive, 30 g/ha",100%
same,visual damage,"Eleusine indica [1]; Table B1-3, biotype Sensitive, 60 g/ha",100%
same,visual damage,"Eleusine indica [1]; Table B1-3, biotype Sensitive, 120 g/ha",100%
same,visual damage,"Setaria viridis; biotype GG2078 (homozygous), 15 g/ha",30%
same,visual damage,"Setaria viridis; biotype GG2078 (homozygous), 30 g/ha",60%
same,visual damage,"Setaria viridis; biotype GG2078 (homozygous), 60 g/ha",63%
same,visual damage,"Setaria viridis; biotype GG2078 (homozygous), 120 g/ha",67%
same,visual damage,"Setaria viridis; biotype II1781 (homozygous), 15 g/ha",80%
same,visual damage,"Setaria viridis; biotype II1781 (homozygous), 30 g/ha",100%
same,visual damage,"Setaria viridis; biotype II1781 (homozygous), 60 g/ha",100%
same,visual damage,"Setaria viridis; biotype II1781 (homozygous), 120 g/ha",100%
same,visual damage,"Setaria viridis; biotype LL1781 (homozygous), 15 g/ha",50%
same,visual damage,"Setaria viridis; biotype LL1781 (homozygous), 30 g/ha",60%
same,visual damage,"Setaria viridis; biotype LL1781 (homozygous), 60 g/ha",60%
same,visual damage,"Setaria viridis; biotype LL1781 (homozygous), 120 g/ha",53%
same,visual damage,"Setaria viridis; biotype Sensitive, 15 g/ha",90%
same,visual damage,"Setaria viridis; biotype Sensitive, 30 g/ha",98%
same,visual damage,"Setaria viridis; biotype Sensitive, 60 g/ha",100%
same,visual damage,"Setaria viridis; biotype Sensitive, 120 g/ha",100%
same,visual damage,"Eleusine indica [2]; biotype D2078G, 15 g/ha",10%
same,visual damage,"Eleusine indica [2]; biotype D2078G, 30 g/ha",27%
same,visual damage,"Eleusine indica [2]; biotype D2078G, 60 g/ha",53%
same,visual damage,"Eleusine indica [2]; biotype D2078G, 120 g/ha",100%
same,visual damage,"Eleusine indica [2]; biotype D2078G, 240 g/ha",100%
same,visual damage,"Eleusine indica [2]; biotype G2096A, 15 g/ha",7%
same,visual damage,"Eleusine indica [2]; biotype G2096A, 30 g/ha",30%
same,visual damage,"Eleusine indica [2]; biotype G2096A, 60 g/ha",78%
same,visual damage,"Eleusine indica [2]; biotype G2096A, 120 g/ha",100%
same,visual damage,"Eleusine indica [2]; biotype G2096A, 240 g/ha",100%
same,visual damage,"Eleusine indica [2]; biotype I2041N, 15 g/ha",60%
same,visual damage,"Eleusine indica [2]; biotype I2041N, 30 g/ha",27%
same,visual damage,"Eleusine indica [2]; biotype I2041N, 60 g/ha",53%
same,visual damage,"Eleusine indica [2]; biotype I2041N, 120 g/ha",100%
same,visual damage,"Eleusine indica [2]; biotype I2041N, 240 g/ha",100%
same,visual damage,"Eleusine indica [2]; biotype Sensitive, 15 g/ha",92%
same,visual damage,"Eleusine indica [2]; biotype Sensitive, 30 g/ha",100%
same,visual damage,"Eleusine indica [2]; biotype Sensitive, 60 g/ha",100%
same,visual damage,"Eleusine indica [2]; biotype Sensitive, 120 g/ha",100%
same,visual damage,"Eleusine indica [2]; biotype Sensitive, 240 g/ha",100%
same,visual damage,"Eleusine indica [2]; biotype W2027C, 15 g/ha",93%
same,visual damage,"Eleusine indica [2]; biotype W2027C, 30 g/ha",100%
same,visual damage,"Eleusine indica [2]; biotype W2027C, 60 g/ha",100%
same,visual damage,"Eleusine indica [2]; biotype W2027C, 120 g/ha",100%
same,visual damage,"Eleusine indica [2]; biotype W2027C, 240 g/ha",100%
same,visual damage,"Echinochloa Crus-galli; biotype Sensitive, 15 g/ha",100%
same,visual damage,"Echinochloa Crus-galli; biotype Sensitive, 30 g/ha",100%
same,visual damage,"Echinochloa Crus-galli; biotype Sensitive, 60 g/ha",100%
same,visual damage,"Echinochloa Crus-galli; biotype Sensitive, 120 g/ha",100%
same,visual damage,"Echinochloa Crus-galli; biotype Sensitive, 240 g/ha",100%
same,visual damage,"Echinochloa Crus-galli; biotype W2027C, 15 g/ha",83%
same,visual damage,"Echinochloa Crus-galli; biotype W2027C, 30 g/ha",100%
same,visual damage,"Echinochloa Crus-galli; biotype W2027C, 60 g/ha",100%
same,visual damage,"Echinochloa Crus-galli; biotype W2027C, 120 g/ha",100%
same,visual damage,"Echinochloa Crus-galli; biotype W2027C, 240 g/ha",100%
same,visual damage,"Echinochloa Crus-galli; population ECG-NTSR-1 (non-target-site resistance), 15 g/ha",95%
same,visual damage,"Echinochloa Crus-galli; population ECG-NTSR-1 (non-target-site resistance), 30 g/ha",98%
same,visual damage,"Echinochloa Crus-galli; population ECG-NTSR-1 (non-target-site resistance), 60 g/ha",100%
same,visual damage,"Echinochloa Crus-galli; population ECG-NTSR-1 (non-target-site resistance), 120 g/ha",100%
same,visual damage,"Echinochloa Crus-galli; population ECG-NTSR-1 (non-target-site resistance), 240 g/ha",100%
